Data as given in patent US12077503B2, “Substituted cyclic amides and their use as herbicides” (FMC CORPORATION, priority 2015, dated 2024).

What was measured:
Assay type in all cases: in vivo
[1] = test system: ducksalad (Heteranthera limosa); assay: Test B flooded paddy test; settings: Flood, 500 g ai/ha; 0 to 100 scale where 0 is no effect and 100 is complete control; 13 to 15 d
Summary of the method: (§1)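 Plants at 2-leaf stage flooded to 3 cm above soil, with compounds applied directly to paddy water and that depth maintained. Plants kept in greenhouse 13–15 d. Visual rating versus controls on a 0 (no effect) to 100 (complete control) scale.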

[2] = test system: sedge, umbrella (small-flower umbrella sedge, Cyperus difformis); assay: Test B flooded paddy test; settings: Flood, 500 g ai/ha; 0 to 100 scale where 0 is no effect and 100 is complete control; 13 to 15 d
Summary of the method: as §1

[3] = test system: barnyardgrass (Echinochloa crus-galli); assay: Test B flooded paddy test; settings: Flood, 500 g ai/ha; 0 to 100 scale where 0 is no effect and 100 is complete control; 13 to 15 d
Summary of the method: as §1

rice (Oryra sativa) = assay: Test B flooded paddy test; settings: Flood, 500 g ai/ha; 0 to 100 scale where 0 is no effect and 100 is complete control; 13 to 15 d
Summary of the method: as §1

[4] = test system: pigweed (Amaranthus retroflexus); assay: Test A preemergence
[5] = test system: giant foxtail (Setaria faberii); assay: Test A preemergence
Summary of the method: (§2)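 In a loam soil and sand blend, planted seeds got a preemergence directed soil spray, and young plants at the one- to two-leaf stage, 2–10 cm high, got a postemergence application; ~10 d greenhouse hold; injury rated visually, 0 = none, 100 = complete control.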

[6] = test system: ragweed (common ragweed, Ambrosia elatior); assay: Test A preemergence
Summary of the method: as §2

Kochia (Kochia scoparia) [7] = assay: Test A preemergence
Summary of the method: as §2

[8] = test system: ryegrass, Italian (Italian ryegrass, Lolium multiflorum); assay: Test A preemergence
Summary of the method: as §2

[9] = test system: barnyardgrass (Echinochloa crus-galli); assay: Test A preemergence
Summary of the method: as §2

[10] = test system: lambsquarters (Chenopodium album); assay: Test C preemergence; settings: scale 0 to 100, 0 no effect, 100 complete control
From the text: Seeds of plant species selected from blackgrass (Alopecurus myosuroides), ryegrass, Italian (Italian ryegrass, Lolium multiflorum), wheat (winter wheat, Triticum aestivum), Galium (catchweed bedstraw, Galium aparine), corn (Zea mays), crabgrass, large (large crabgrass, Digitaria sanguinalis), foxtail, giant (giant foxtail, Setaria faberii), johnsongrass (Sorghum halepense), lambsquarters (Chenopodium album), morningglory (Ipomoea coccinea), nutsedge, yellow (yellow nutsedge, Cyperus esculentus), pigweed (Amaranthus retroflexus), ragweed (common ragweed, Ambrosia elatior), soybean (Glycine max), barnyardgrass (Echinochloa crus-galli), oilseed rape (Brassica napus), waterhemp (common waterhemp, Amaranthus rudis) and velvetleaf (Abutilon theophrasti) were planted into a blend of loam soil and sand and treated preemergence with test chemicals formulated in a non-phytotoxic solvent mixture which included a surfactant.
At the same time, plants selected from these crop and weed species and also Kochia (Kochia scoparia), oat, wild (wild oat, Avena fatua), and chickweed (common chickweed, Stellaria media) were planted in pots containing Sunshine Redi-Earth® planting medium comprising spaghnum peat moss, vermiculite, starter nutrients and dolomitic limestone and treated with postemergence applications of test chemicals formulated in the same manner. Plants ranged in height from 2 to 18 cm (1- to 4-leaf stage) for postemergence treatments. Treated plants and controls were maintained in a greenhouse for 13 to 15 d, after which time all species were compared to controls and visually evaluated. Plant response ratings, summarized in Table C, are based on a scale of 0 to 100 where 0 is no effect and 100 is complete control. A dash (-) response means no test result.

[11] = test system: pigweed (Amaranthus retroflexus); assay: Test A postemergence; settings: postemergence
Summary of the method: as §2

[12] = test system: blackgrass (Alopecurus myosuroides); assay: Test A postemergence; settings: postemergence
Summary of the method: as §2

corn (Zea mays) = assay: Test A postemergence; settings: postemergence
Summary of the method: as §2

[13] = test system: giant foxtail (Setaria faberii); assay: Test A postemergence; settings: postemergence
Summary of the method: as §2

[14] = test system: ragweed (common ragweed, Ambrosia elatior); assay: Test A postemergence; settings: postemergence
Summary of the method: as §2

[15] = test system: Galium (catchweed bedstraw, Galium aparine); assay: Test A postemergence; settings: postemergence
Summary of the method: as §2

Kochia (Kochia scoparia) [16] = assay: Test A postemergence; settings: postemergence
Summary of the method: as §2

[17] = test system: ryegrass, Italian (Italian ryegrass, Lolium multiflorum); assay: Test A postemergence; settings: postemergence
Summary of the method: as §2

[18] = test system: barnyardgrass (Echinochloa crus-galli); assay: Test A postemergence; settings: postemergence
Summary of the method: as §2

[19] = test system: wheat (Triticum aestivum); assay: Test A postemergence; settings: postemergence
Summary of the method: as §2

[20] = 125 g ai/ha, preemergence, 0 to 100 scale (0 no effect, 100 complete control)
[21] = Preemergence, 500 g ai/ha, visual injury approx. 10 d
[22] = 125 g ai/ha, visual injury rating on 0 to 100 scale (0 no effect, 100 complete control), approx. 10 d
[23] = 500 g ai/ha, 0 to 100 scale, 0 no effect, 100 complete control

## O=C1NCC(c2cccc(OC(F)F)c2)C1C(=O)Nc1ccc(F)cc1F (stereo not shown) [Compound 421]
[1]
  Plant response rating, Ducksalad: 100
[2]
  Plant response rating, Sedge, Umbrella: 0
[3]
  Plant response rating, Barnyardgrass: 75
Rice (Oryra sativa)
  Plant response rating, Rice: 15
[4]; [20]
  Plant response rating, Pigweed: 20
[4]; [21]
  Pigweed plant response rating (0 to 100 scale, 0 is no effect, 100 is complete control): 40
[5]; [20]
  Plant response rating, Foxtail, Giant: 90
[5]; [21]
  Foxtail, Giant plant response rating (0 to 100 scale, 0 is no effect, 100 is complete control): 90
[6]; [20]
  Plant response rating, Ragweed: 30
[6]; [21]
  Ragweed plant response rating (0 to 100 scale, 0 is no effect, 100 is complete control): 40
Kochia (Kochia scoparia) [7]; [20]
  Plant response rating, Kochia: 70
Kochia (Kochia scoparia) [7]; [21]
  Kochia plant response rating (0 to 100 scale, 0 is no effect, 100 is complete control): 80
[8]; [20]
  Plant response rating, Ryegrass, Italian: 0
[8]; [21]
  Ryegrass, Italian plant response rating (0 to 100 scale, 0 is no effect, 100 is complete control): 30
[9]; [20]
  Plant response rating, Barnyardgrass: 90
[9]; [21]
  Barnyardgrass plant response rating (0 to 100 scale, 0 is no effect, 100 is complete control): 90
[10]; 31 g ai/ha
  Plant response rating, Lambsquarters: 10
[10]; 62 g ai/ha
  Plant response rating, Lambsquarters: 35
[10]; 125 g ai/ha
  Plant response rating, Lambsquarters: 60
[10]; 250 g ai/ha
  Plant response rating, Lambsquarters: 70
[11]; [22]
  Pigweed plant response rating: 0
[11]; [23]
  Plant response rating, Pigweed: 30
[12]; [22]
  Blackgrass plant response rating: 20
[12]; [23]
  Plant response rating, Blackgrass: 50
Corn (Zea mays); [22]
  Corn plant response rating: 0
Corn (Zea mays); [23]
  Plant response rating, Corn: 70
[13]; [22]
  Foxtail, Giant plant response rating: 80
[13]; [23]
  Plant response rating, Foxtail, Giant: 90
[14]; [22]
  Ragweed plant response rating: 20
[14]; [23]
  Plant response rating, Ragweed: 30
[15]; [22]
  Galium plant response rating: 50
[15]; [23]
  Plant response rating, Galium: 60
Kochia (Kochia scoparia) [16]; [22]
  Kochia plant response rating: 0
Kochia (Kochia scoparia) [16]; [23]
  Plant response rating, Kochia: 20
[17]; [22]
  Ryegrass, Italian plant response rating: 20
[17]; [23]
  Plant response rating, Ryegrass, Italian: 40
[18]; [22]
  Barnyardgrass plant response rating: 70
[18]; [23]
  Plant response rating, Barnyardgrass: 90
[19]; [22]
  Wheat plant response rating: 0
[19]; [23]
  Plant response rating, Wheat: 40
